Converted amounts (≈) assume the structure as drawn.
Conditions: buffer; pH 7.4; 200.0 µM

Row | Compound | solubility kinetic [µg/mL]
1 | O=C1CCCN1S(=O)(=O)c1ccc(F)cc1 | > 36.5
2 | CC(=O)c1cnc(Nc2cccc(C)c2)s1 | 13.7 (≈ 59 µM)
3 | COc1ccc(C(=O)N2CCc3cc4c(cc3C2C)OCCCO4)cc1 (stereo not given) | > 53
4 | COC(OC)c1ccnc(-c2ccc(OC(=O)c3ccccc3)cc2)n1 | < 0.4
5 | COCCNS(=O)(=O)c1cc(OC)ccc1OC | > 41.3
6 | Cc1c(C(=O)N2CCNCC2)oc2ccccc12.Cl | 40.9
7 | COc1ccc(N(C(=O)C(C)C)S(=O)(=O)c2ccc3ccccc3c2)cc1 | < 0.8
8 | Cc1cccc(C(=O)N/C(=C\c2ccco2)C(=O)N2CCCC2)c1 | > 48.7
9 | CCCCN(Cc1cc2cccc(C)c2[nH]c1=O)S(C)(=O)=O | 41 (≈ 127 µM)
10 | Cc1cc(C)c2oc(C(=O)N3CCN(C)CC3)cc(=O)c2c1 | 27.2 (≈ 90.6 µM)
11 | C=CCSC1=NN2CCS(=O)(=O)N=C2S1 | > 39.5
12 | COc1ccc(Cl)cc1NC(=S)NCc1cccnc1 | > 46.2
13 | O=C(CSc1nccn1-c1cccc(F)c1)NC1CCCC1 | > 47.9
14 | COc1ccc(C/C(N)=N/OC(=O)c2ccco2)cc1OC | > 45.6
15 | CCOc1cc(N2CCOCC2)c(OCC)cc1NC(=O)C(C)(C)C | > 52.6
16 | CCc1ccc(NC(=O)C2C3CCC(O3)C2C(=O)O)cc1 (stereo not given) | 39.3 (≈ 136 µM)
17 | Cc1cc(C(=O)OCC(=O)N2CCOCC2)ccc1[N+](=O)[O-] | > 46.2
18 | O=C(Nc1cccc(F)c1)c1ccco1 | 26.7 (≈ 130 µM)
19 | Cc1cccc(C(=O)NCc2ccco2)c1 | > 32.3
20 | NC(=O)c1ccc(NC(=O)CSC(=O)c2ccccc2)cc1 | 16.4 (≈ 52.2 µM)
21 | Fc1cccc(CN2CCN(c3ccc(Cl)cc3)CC2)c1 | 4.1 (≈ 13.5 µM)
22 | Cc1cc(NC(=O)CSc2ncc(C(=O)O)n2-c2ccc(F)cc2)no1 | 55.4 (≈ 147 µM)
23 | CCOC(=O)c1csc(NC(=O)CCSc2ccccc2)n1 | 1.1 (≈ 3.27 µM)
24 | CC(C)c1ccc(NC(=O)CCCN2C(=O)NC(C)(C)C2=O)cc1 | 37.8 (≈ 114 µM)

Row | Compound | solubility kinetic [µg/mL]
25 | CCN(CC)CCCN=Cc1c(O)n(-c2cccc(C)c2)c(=O)c2ccccc12 | > 58.7
26 | O=C(O)COCC(=O)N1CCN(C(c2ccccc2)c2ccccc2)CC1 | > 55.3
27 | Cc1ccc(C)c(NC(=O)c2cc([N+](=O)[O-])cc([N+](=O)[O-])c2)c1 | 0.6 (≈ 1.9 µM)
28 | COc1ccc(NC2c3ccccc3C(=O)N2c2ccccn2)cc1 (stereo not given) | 34.1 (≈ 103 µM)
29 | Cc1ccc(C(=O)Nc2c(C)cc(-c3ccccc3)oc2=O)cc1 | < 0.7
30 | CC(=O)N[C@H](Cc1c[nH]c2ccccc12)C(=O)O | > 36.9
31 | CCOC(=O)c1sc(NC(=O)c2ccc(=O)[nH]c2)nc1C | 7.3 (≈ 23.8 µM)
32 | CC(=O)c1cccc(NC(=O)N2CC(C)OC(C)C2)c1 (stereo not given) | > 41.5
33 | CN(Cc1ccc(F)cc1)C(=O)COc1ccc2ccccc2c1 | < 0.7
34 | O=C(NCCc1ccccc1)C1CCCN(c2cnccn2)C1 (stereo not given) | 45.9 (≈ 148 µM)
35 | CSc1ncc(C(=O)NCCCc2ccccc2)c(C)n1 | 43 (≈ 143 µM)
36 | CCOc1cc(C(=O)OC(C(=O)NC(=O)NC)c2ccccc2)ccc1OCC(=O)N1CCOCC1 (stereo not given) | 11.4 (≈ 22.8 µM)
37 | CCCCCCN1C=CC(=C2C(=O)c3ccccc3C2=O)C=C1 | < 0.7
38 | C=CCn1c(O)c(C(C)=Nc2ccc(C(=O)O)cc2)c(=O)[nH]c1=O | > 49.4
39 | COc1cc2ncnc(Nc3ccc4c(c3)OCO4)c2cc1OC | 10.1 (≈ 31 µM)
40 | CNC(=O)c1c(NC(=O)C(C)C)sc2c1CCC2 | 36.5 (≈ 137 µM)
41 | CC(C)CCc1noc(CN(CC2CCC2)CC2CCCO2)n1 (stereo not given) | 11.9 (≈ 37 µM)
42 | Oc1ccc(Br)cc1C1Nc2ccccc2S1 (stereo not given) | < 0.7
43 | COc1ccc(CN=C(C#N)C2=C(O)c3ccccc3C2=O)cc1 | 0.8 (≈ 2.51 µM)
44 | Cc1ccc(C(C)C)c(Oc2cnccn2)c1 | 4.3 (≈ 18.8 µM)
45 | O=S(=O)(Nc1nccs1)c1ccc(NS(=O)(=O)c2c(F)cc(F)c(Cl)c2F)cc1 | > 72.6
46 | Cc1cccn2c(NC(=O)c3ccccc3F)c(-c3ccccc3)nc12 | 2.6 (≈ 7.53 µM)
47 | CCCN1C2CCCC1CC(NC(=O)c1ccccc1OC)C2 (stereo not given) | > 47.5
48 | COc1ccc(C(=O)CCC(C)(C)[N+](=O)[O-])cc1 | 31.8 (≈ 127 µM)

Row | Compound | solubility kinetic [µg/mL]
49 | CNC(=O)c1cc(OCC(F)(F)F)ccc1OCC(F)(F)F | 49.6 (≈ 150 µM)
50 | O=C(Cc1ccc(F)cc1)N1CCOCC1 | > 33.5
51 | CC(C)CC(=O)Nc1cccc(-c2nc3ccccc3[nH]2)c1 | 32.2 (≈ 110 µM)
52 | CCOc1ccc(N2C(=O)CC(SCC(=O)O)C2=O)cc1 (stereo not given) | > 46.4
53 | O=C(CSc1cccc[n+]1[O-])Nc1ccc(Cl)cc1F | 15.1 (≈ 48.3 µM)
54 | Cc1ccc2oc(C(=O)NCCC3CCCCO3)c(C)c2c1 (stereo not given) | 43.1 (≈ 143 µM)
55 | O=C(CN1CCOCC1)NNC(=O)c1ccc(Cl)cc1 | > 44.7
56 | COc1cccc(/C=C2\SC(=N)N(c3ccc(F)cc3)C2=O)c1 | 0.5 (≈ 1.52 µM)
57 | CCOC(=O)c1[nH]cnc1C(=O)Nc1ccc([N+](=O)[O-])cc1 | 5 (≈ 16.4 µM)
58 | COc1cccc(NC(=O)CN(C)C(=O)C2=COCCO2)c1 | 43.1 (≈ 141 µM)
59 | CC1CC(C)CN(C(=O)CSc2nnc(N)s2)C1 (stereo not given) | > 43
60 | COc1ccc(Cn2cc(F)c(=O)n(C)c2=O)cc1[N+](=O)[O-] | 42.8 (≈ 138 µM)
61 | S=C(Nc1ccccc1)N1CCN(Cc2ccccc2)CC1 | > 46.7
62 | COc1ccc(S(=O)(=O)N2CCOCC2)c2ccccc12 | 40.6 (≈ 132 µM)
63 | COc1ccccc1Cn1c(C(C)C)nc2ccccc21 | > 42.1
64 | CC(C)C(=O)Nc1oc(-c2ccccc2)cc1C#N | 10.5 (≈ 41.3 µM)
65 | CCOc1ncccc1C(=O)Nc1cc2c(cc1Br)OCCO2 | 6.5 (≈ 17.1 µM)
66 | Cc1cc(O)c(C(=O)Cc2csc(C)n2)c(O)c1 | 4.1 (≈ 15.6 µM)
67 | CN(C)c1ccc(NC(=O)CN2CCN(c3ccc(F)cc3)CC2)cc1 | 2.5 (≈ 7.01 µM)
68 | CS(=O)(=O)Nc1ccccc1C(=O)OCC(=O)NCc1cccs1 | > 55.3
69 | O=c1[nH]c2ccc(S(=O)(=O)NCc3ccccc3)cc2[nH]1 | 22.5 (≈ 74.2 µM)
70 | CCN(CC(=O)NCc1ccncc1)S(=O)(=O)c1ccccc1 | > 50
71 | Cc1cc(N2Cc3ccccc3C2)ccc1C=O | 7.1 (≈ 29.9 µM)
72 | Cc1cc(C)n2nc(C(=O)OCC(=O)Nc3ccc(C)c(F)c3)nc2n1 | > 53.6

Row | Compound | solubility kinetic [µg/mL]
73 | COc1cc(NC(=O)NC2Cc3ccccc3C2)cc(OC)c1 | < 0.3
74 | Cc1ccc(CNc2c(C=O)c(=O)[nH]c3ccccc23)cc1 | 2.2 (≈ 7.53 µM)
75 | COc1ccc(Cc2nc(C)cc(Cl)n2)cc1[N+](=O)[O-].Cl | > 49.5
76 | Cc1ccc(-n2c(-c3ccc(Cl)cc3)c[n+]3c2CCC3)cc1.[Br-] | > 58.5
77 | Fc1ccccc1CN1CCC(Cc2ccccc2)CC1 | 25.9 (≈ 91.4 µM)
78 | O=c1[nH]c(N2CCOCC2)nc2ccccc12 | > 34.7
79 | CCC1CCCCN1CC(=O)Nc1ccc2c(c1)OCCO2 (stereo not given) | > 45.7
80 | COc1ccc2[nH]c(=O)c(CNc3ccccc3C)cc2c1 | 27.6 (≈ 93.8 µM)
81 | CNS(=O)(=O)c1cccc(C(=O)OCC(=O)N2CCCC2)c1 | 45.2 (≈ 138 µM)
82 | O=C(/C=C/c1ccco1)Nc1cccnc1Cl | 33 (≈ 133 µM)
83 | O=C(NC1CCN(c2ncccn2)CC1)c1ccccc1F | 39.7 (≈ 132 µM)
84 | Cl.O=C(CN1CCCCC1)c1ccc(F)cc1 | > 38.7
85 | COc1ccc(N2CCN(Cc3nc4ccccc4[nH]3)CC2)cc1 | > 48.4
86 | CNc1nc(Cl)c(SC)c(NCc2cccc(OC)c2)n1 | 1 (≈ 3.08 µM)
87 | Cc1ccccc1N(Cc1cc(=O)[nH]c2ccccc12)C(=O)C(C)C | 36 (≈ 108 µM)
88 | CC(=O)Nc1ccc(OCC(=O)N2CCc3ccccc3C2)cc1 | > 48.7
89 | CCN(CC(=O)Nc1ccc2c(c1)OCCO2)C(=O)/C=C/c1cccc(C(F)(F)F)c1 | 3.6 (≈ 8.29 µM)
90 | O=C(OCc1cccc([N+](=O)[O-])c1)c1cccnc1Cl | 5.4 (≈ 18.5 µM)
91 | Cn1c(C(=O)N2CCC(C(N)=O)CC2)cc2cc(Cl)ccc21 | 1.2 (≈ 3.75 µM)
92 | CCC(C)[C@H](NC(=O)N1CCCCC1)C(=O)OC (stereo not given in full) | > 38.5
93 | CC(O)CNC12CC3CC(CC(C3)C1)C2 (stereo not given) | 29.6 (≈ 141 µM)
94 | Cc1nc2ccc(NC(=O)CCC3CCCC3)cc2s1 | 8.9 (≈ 30.9 µM)
95 | Fc1ccc(CNC(=S)NC2CCCCCC2)cc1 | 28.3 (≈ 101 µM)
96 | CN(C)C(=O)N1CCNCC1.Cl | > 29.1

Row | Compound | solubility kinetic [µg/mL]
97 | CC(=O)c1cccc(NC(=O)c2sc(Cl)nc2C)c1 | > 44.2
98 | Cn1cc(C(=O)Nc2ccc(C#N)cc2)c2ccccc2c1=O | < 0.2
99 | O=C(O)[C@H]1Cc2ccccc2CN1S(=O)(=O)c1ccc(F)cc1 | > 50.3
100 | O=C(c1ccc2ccccc2c1)N1CCN(c2ccccn2)CC1 | 47.5 (≈ 150 µM)
101 | Cc1ccc(N(CC(=O)N2CCCC2)S(C)(=O)=O)c(C)c1 | > 46.6
102 | c1ccc2[nH]c(-c3cnco3)cc2c1 | 21.6 (≈ 117 µM)
103 | CC(C(=O)N1CCCC1)N(c1ccccc1)S(C)(=O)=O (stereo not given) | > 44.5
104 | Cc1nc(NS(=O)(=O)c2cccc([N+](=O)[O-])c2)sc1C(C)(C)C | 5.4 (≈ 15.2 µM)
105 | O=C(c1ccccc1[N+](=O)[O-])N1CCCC(C(=O)N2CCCCCC2)C1 (stereo not given) | 53 (≈ 147 µM)
106 | COc1ccc(Br)c(C(=O)OCC(=O)NC(=O)NC2CCCC2)c1 | 19.5 (≈ 48.8 µM)
107 | O=C(NCc1ccncc1)NC1CCCCC1 | > 35
108 | CC1CCN(c2ccc(C(F)(F)F)cc2N)CC1 | < 0.3
109 | COC(c1ccccc1)(c1ccccc1)C(Oc1nc(C)cc(C)n1)C(=O)O (stereo not given) | > 56.8
110 | CCOc1ccc(CNCCCSc2ncccn2)cc1 | > 45.5
111 | Cn1c(=O)c2c(O)c(Cc3ccccc3)c(=O)n(C)c2n(C)c1=O | 36 (≈ 110 µM)
112 | O=C(Nc1ccccc1Oc1ccccc1)c1cccs1 | 15.2 (≈ 51.5 µM)
113 | CC(C)N(C)CCOC(=O)C1COc2ccccc2O1.Cl (stereo not given) | > 47.4
114 | Cc1cccc(NC(=O)Nc2ccc(S(N)(=O)=O)cc2)c1 | 22.1 (≈ 72.4 µM)
115 | CNC(=O)C12N=CNN=C1N(C)C(=O)N2C (stereo not given) | > 33.6
116 | N#Cc1c(NC(=O)c2ccco2)sc2c1CCC2 | 9.4 (≈ 36.4 µM)
117 | CCCCN1C(=O)C2(OCCCO2)c2cccc(C)c21 | 25.1 (≈ 91.2 µM)
118 | Cc1cc2ccccn2c1C(=O)c1ccc(C#N)cc1 | 1.9 (≈ 7.3 µM)
119 | Cc1cc(C(=O)NCc2ccc(F)cc2)c2ccccc2n1 | 15.8 (≈ 53.7 µM)
120 | CCSc1nsc(NC(=O)Nc2cccc(C(C)=O)c2)n1 | 1.6 (≈ 4.96 µM)

Source: PubChem BioAssay AID1996
